ChEMBL document CHEMBL6153025, “Multidrug-resistant bacteria quorum-sensing inhibitors: A particular focus on Pseudomonasaeruginosa” (Eur J Med Chem, 2025)
Values after ≈ are worked out from the molar mass of the structure shown.

Legend:
Pseudomonas aeruginosa [1] = assay: Antibacterial activity against Pseudomonas aeruginosa PAO1 assessed as bacterial growth inhibition after 20 hrs by liquid microdilution method; type: functional, organism-based; details: PAO1, 20 h
Pseudomonas aeruginosa [2] = assay: Antivirulence activity against Pseudomonas aeruginosa PAO1 assessed as reduction in protease production; type: functional, organism-based
Pseudomonas aeruginosa [3] = assay: Antivirulence activity against Pseudomonas aeruginosa PAO1 assessed as reduction in elastase production; type: functional, organism-based
Pseudomonas aeruginosa [4] = assay: Antivirulence activity against Pseudomonas aeruginosa PAO1 assessed as reduction in pyocyanin production; type: functional, organism-based
Pseudomonas aeruginosa [5] = assay: Antivirulence activity against Pseudomonas aeruginosa PAO1 assessed as inhibition of pyocyanin production; type: functional, organism-based
[6] = Inhibition of quorum sensing system in Pseudomonas aeruginosa PAO1-pqsA assessed as reduction in fluorescence intensity measured for 12 hrs by GFP reporter strain assay
Pseudomonas aeruginosa [7] = assay: Antibiofilm activity against Pseudomonas aeruginosa PAO1; type: functional, organism-based
Pseudomonas aeruginosa [8] = assay: Downregulation of rhlI mRNA expression level in Pseudomonas aeruginosa PAO1 at 200 uM by RT-PCR analysis relative to control; type: functional
Pseudomonas aeruginosa [9] = assay: Antibacterial activity against Pseudomonas aeruginosa PAO1 assessed as bacterial growth inhibition incubated for 24 hrs by micro-broth dilution method; type: functional
Pseudomonas aeruginosa [10] = assay: Downregulation of lasR mRNA expression level in Pseudomonas aeruginosa PAO1 at 200 uM by RT-PCR analysis relative to control; type: functional
Pseudomonas aeruginosa [11] = assay: Downregulation of rhlR mRNA expression level in Pseudomonas aeruginosa PAO1 at 200 uM by RT-PCR analysis relative to control; type: functional
Pseudomonas aeruginosa [12] = assay: Downregulation of lasI mRNA expression level in Pseudomonas aeruginosa PAO1 at 200 uM by RT-PCR analysis relative to control; type: functional

**Q.** What does the source list for `COc1c(O)cc(O)c2c(=O)cc(-c3ccccc3)oc12` [WOGONIN]?
**A.** IC50 (Pseudomonas aeruginosa [1]): 15 µg/mL (≈ 52.8 µM); IC50 (Pseudomonas aeruginosa [2]): 15 µg/mL (≈ 52.8 µM); IC50 (Pseudomonas aeruginosa [3]): 15 µg/mL (≈ 52.8 µM); IC50 (Pseudomonas aeruginosa [4]): 15 µg/mL (≈ 52.8 µM)

**Q.** For `CC(C)=CCC/C(C)=C/CC/C(C)=C/CO` [FARNESOL], which IC50 (Pseudomonas aeruginosa [5]) is on record?
**A.** 1.11 µg/mL (≈ 4.99 µM)

**Q.** What about the IC50 [6] of the same compound?
**A.** 0.14 µg/mL (≈ 0.63 µM)

**Q.** Which IC50 (Pseudomonas aeruginosa [7]) does the source give for `O=c1c(O)c(-c2ccc(O)c(O)c2)oc2cc(O)cc(O)c12` [QUERCETIN] here?
**A.** 100 µM

**Q.** What about the Activity (Pseudomonas aeruginosa [8]) of the same compound?
**A.** 85%

**Q.** What about the MIC (Pseudomonas aeruginosa [9]) of the same compound?
**A.** 1 µM (≈ 0.302 µg/mL)

**Q.** What about the Activity (Pseudomonas aeruginosa [10]) of the same compound?
**A.** 85%

**Q.** And the Activity (Pseudomonas aeruginosa [11])?
**A.** 85%

**Q.** What about the Activity (Pseudomonas aeruginosa [12]) of the same compound?
**A.** 85%
